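Exposure lasted 48 hours, with cells grown in 96-well plates and compounds tested at five concentrations. GI50 marks 50% less growth. TGI: concentration producing complete growth inhibition.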
Legend:
Assay in all cases: inhibition of tumour cell growth, NCI panel, 48 h
A498 renal = test system: A498 renal
786-0 renal = test system: 786-0 renal
LOX IMVI melanoma = test system: LOX IMVI melanoma
A549 NSCLC = test system: A549 NSCLC
IGROV1 ovarian = test system: IGROV1 ovarian
BT-549 breast = test system: BT-549 breast
HL-60(TB) leukemia = test system: HL-60(TB) leukemia
T-47D breast = test system: T-47D breast
COLO 205 colon = test system: COLO 205 colon
SF-268 CNS = test system: SF-268 CNS
NCI-H460 lung = test system: NCI-H460 lung
NCI/ADR-RES ovarian = test system: NCI/ADR-RES ovarian
SF-295 CNS = test system: SF-295 CNS
HOP-92 NSCLC = test system: HOP-92 NSCLC
HCT-116 colon = test system: HCT-116 colon
UACC-257 melanoma = test system: UACC-257 melanoma
OVCAR-3 ovarian = test system: OVCAR-3 ovarian
RXF 393 renal = test system: RXF 393 renal
OVCAR-8 ovarian = test system: OVCAR-8 ovarian
SK-MEL-2 melanoma = test system: SK-MEL-2 melanoma
K-562 leukemia = test system: K-562 leukemia
OVCAR-4 ovarian = test system: OVCAR-4 ovarian
SK-OV-3 ovarian = test system: SK-OV-3 ovarian
UACC-62 melanoma = test system: UACC-62 melanoma
MOLT-4 leukemia = test system: MOLT-4 leukemia
SK-MEL-28 melanoma = test system: SK-MEL-28 melanoma
NCI-H522 lung = test system: NCI-H522 lung
MALME-3M melanoma = test system: MALME-3M melanoma
HT29 colon = test system: HT29 colon
SNB-75 CNS = test system: SNB-75 CNS
UO-31 renal = test system: UO-31 renal
HCC-2998 colon = test system: HCC-2998 colon
PC-3 prostate = test system: PC-3 prostate
SF-539 CNS = test system: SF-539 CNS
SN12C renal = test system: SN12C renal
MDA-MB-231 breast = test system: MDA-MB-231 breast
NCI-H23 lung = test system: NCI-H23 lung
SK-MEL-5 melanoma = test system: SK-MEL-5 melanoma
NCI-H226 lung = test system: NCI-H226 lung
U251 CNS = test system: U251 CNS
KM12 colon = test system: KM12 colon
HOP-62 NSCLC = test system: HOP-62 NSCLC
CAKI-1 renal = test system: CAKI-1 renal
SW-620 colon = test system: SW-620 colon

SMILES: C#Cc1ccc(-n2c(/C=C/c3ccc4ccccc4n3)nc3ncccc3c2=O)cc1
- GI50 (A498 renal): 138 nM
- TGI (A498 renal): 615 nM
- GI50 (786-0 renal): 575 nM
- TGI (786-0 renal): 2240 nM
- GI50 (LOX IMVI melanoma): 169 nM
- TGI (LOX IMVI melanoma): 657 nM
- GI50 (A549 NSCLC): 353 nM
- TGI (A549 NSCLC): 1830 nM
- GI50 (IGROV1 ovarian): 428 nM
- TGI (IGROV1 ovarian): 1580 nM
- GI50 (BT-549 breast): 514 nM
- TGI (BT-549 breast): 2190 nM
- GI50 (HL-60(TB) leukemia): 297 nM
- TGI (HL-60(TB) leukemia): 851 nM
- GI50 (T-47D breast): 366 nM
- TGI (T-47D breast): 1280 nM
- GI50 (COLO 205 colon): 300 nM
- TGI (COLO 205 colon): 734 nM
- GI50 (SF-268 CNS): 488 nM
- TGI (SF-268 CNS): 2330 nM
- GI50 (NCI-H460 lung): 776 nM
- TGI (NCI-H460 lung): 2910 nM
- GI50 (NCI/ADR-RES ovarian): 338 nM
- TGI (NCI/ADR-RES ovarian): 1230 nM
- GI50 (SF-295 CNS): 386 nM
- TGI (SF-295 CNS): 1520 nM
- GI50 (HOP-92 NSCLC): 370 nM
- TGI (HOP-92 NSCLC): 1800 nM
- GI50 (HCT-116 colon): 346 nM
- TGI (HCT-116 colon): 1200 nM
- GI50 (UACC-257 melanoma): 436 nM
- TGI (UACC-257 melanoma): 1920 nM
- GI50 (OVCAR-3 ovarian): 317 nM
- TGI (OVCAR-3 ovarian): 905 nM
- GI50 (RXF 393 renal): 269 nM
- TGI (RXF 393 renal): 792 nM
- GI50 (OVCAR-8 ovarian): 763 nM
- TGI (OVCAR-8 ovarian): 2950 nM
- GI50 (SK-MEL-2 melanoma): 306 nM
- TGI (SK-MEL-2 melanoma): 785 nM
- GI50 (K-562 leukemia): 330 nM
- TGI (K-562 leukemia): > 100000 nM
- GI50 (OVCAR-4 ovarian): 315 nM
- TGI (OVCAR-4 ovarian): 1810 nM
- GI50 (SK-OV-3 ovarian): 351 nM
- TGI (SK-OV-3 ovarian): 1080 nM
- GI50 (UACC-62 melanoma): 394 nM
- TGI (UACC-62 melanoma): 1750 nM
- GI50 (MOLT-4 leukemia): 456 nM
- TGI (MOLT-4 leukemia): > 100000 nM
- GI50 (SK-MEL-28 melanoma): 904 nM
- TGI (SK-MEL-28 melanoma): 2130 nM
- GI50 (NCI-H522 lung): 281 nM
- TGI (NCI-H522 lung): 779 nM
- GI50 (MALME-3M melanoma): 798 nM
- TGI (MALME-3M melanoma): 2350 nM
- GI50 (HT29 colon): 375 nM
- TGI (HT29 colon): 1130 nM
- GI50 (SNB-75 CNS): 389 nM
- TGI (SNB-75 CNS): 1450 nM
- GI50 (UO-31 renal): 403 nM
- TGI (UO-31 renal): 1800 nM
- GI50 (HCC-2998 colon): 640 nM
- TGI (HCC-2998 colon): 1790 nM
- GI50 (PC-3 prostate): 341 nM
- TGI (PC-3 prostate): 1750 nM
- GI50 (SF-539 CNS): 593 nM
- TGI (SF-539 CNS): 1930 nM
- GI50 (SN12C renal): 469 nM
- TGI (SN12C renal): 2030 nM
- GI50 (MDA-MB-231 breast): 544 nM
- TGI (MDA-MB-231 breast): 1650 nM
- GI50 (NCI-H23 lung): 774 nM
- TGI (NCI-H23 lung): 2320 nM
- GI50 (SK-MEL-5 melanoma): 246 nM
- TGI (SK-MEL-5 melanoma): 683 nM
- GI50 (NCI-H226 lung): 408 nM
- TGI (NCI-H226 lung): 1370 nM
- GI50 (U251 CNS): 419 nM
- TGI (U251 CNS): 1590 nM
- GI50 (KM12 colon): 359 nM
- TGI (KM12 colon): 1260 nM
- GI50 (HOP-62 NSCLC): 850 nM
- TGI (HOP-62 NSCLC): 2360 nM
- GI50 (CAKI-1 renal): 501 nM
- TGI (CAKI-1 renal): 2690 nM
- GI50 (SW-620 colon): 387 nM
- TGI (SW-620 colon): 1520 nM

Reference: PubChem BioAssay (NCI)
